Measured values from PMC9518248, “Inhibition of Toxoplasma gondii by 1,2,4-triazole-based compounds: marked improvement in selectivity relative to the standard therapy pyrimethamine and sulfadiazine” (Journal of Enzyme Inhibition and Medicinal Chemistry, 2022).
Converted amounts (≈) assume the structure as drawn. Like-named read-outs stand apart in the source and are kept apart here.

Columns and labels:
[1] = system: mouse fibroblasts L929 cells; design: method as in PMID 31022878, PMID 30744161; conditions: thiosemicarbazides 1a–27a; cited from earlier work
T. gondii RH-GFP [2] = system: T. gondii RH-GFP; design: method as in PMID 31022878, PMID 30744161; conditions: thiosemicarbazides 1a–27a, cited from earlier work; for SI: CC30/IC50Tg; for IC50Tg: T. gondii infected Hs27 cells
T. gondii RH-GFP [3] = assay: Antiparasitic assay: T. gondii RH-GFP proliferation in Hs27 cells; assay type: cell-based, Toxoplasma gondii; conditions: for IC50: Toxoplasma gondii, T. gondii RH-GFP in Hs27 cells, 96 h, values above highest tested concentration extrapolated, read-out: IC50Tg; for SI: selectivity index, CC30 (L929)/IC50Tg
[4] = system: mouse fibroblasts L929 cells; assay: Cell viability assay (MTT, ISO 10993-5); assay type: cell-based; conditions: 24 h, highest dilution causing 30% or higher destruction of cells
Method: Culture medium RPMI 1640, without phenol red (Biowest, Nuaille, France) supplemented with 10% FBS, 2 mM […] penicillin, 100 μg/mL streptomycin were used. Briefly, 1 × 10^4/well of L929 cells were placed in 96-well plates and incubated for 24 h at 37 °C and 10% CO2. Afterwards, the old culture medium was replaced with 100 μL of the compound, drug or inhibitor, diluted in culture medium and the cells treated for 24 h. Additionally, cells were treated with 0.03-4.0% concentration of DMSO as the solvent (data not shown). Then, 50 μL of 1 mg/mL of MTT solution in RPMI 1640 without phenol red was added to each well and incubated for 2 h at 37 °C and 10% CO2. Next, cell culture medium was aspirated carefully and 150 μL of DMSO was added to each well, and the plates were gently mixed. Then, 25 μL 0.1 M glycine buffer (pH 10.5) (Sigma-Aldrich) was added. The optical density at 570 nm using a multi-mode microplate reader SpectraMax® i3 (Syngen, Taipei City, Taiwan) was recorded. The results were expressed as a percentage of viability compared to untreated cells. All experiments were performed in triplicate. The reported methyl thiazolyltetrazole (MTT) method was used to study in vitro cytotoxic profile of the s-triazoles 1b-27b to the host cells (L929). Experiments were performed in accordance with the international standard IS0-10993-5:2009. […] The data for acyclic precursors 1a-27a are also included for comparison[39]^,[40].

Row | SMILES | CC30 [1] [µg/mL] | SI (T. gondii RH-GFP [2]) | IC50Tg (T. gondii RH-GFP [2]) [µg/mL] | IC50 (T. gondii RH-GFP [3]) [µg/mL] | SI (T. gondii RH-GFP [3]) | CC30 [4] [µg/mL] | melting point [°C]
1 | Cc1nc[nH]c1C(=O)NNC(=S)Nc1ccccc1F [1a] | 289.6 (≈ 987 µM) | 4.21 | 68.83 (≈ 235 µM) |  |  |  | 
2 | Cc1nc[nH]c1-c1n[nH]c(=S)n1-c1ccccc1F [1b] |  |  |  | 220 (≈ 799 µM) | 5.78 | 1270.57 (≈ 4620 µM) | 
3 | Cc1nc[nH]c1C(=O)NNC(=S)Nc1cccc(F)c1 [2a] | 125.17 (≈ 427 µM) | 1.10 | 113.45 (≈ 387 µM) |  |  |  | 
4 | Cc1nc[nH]c1-c1n[nH]c(=S)n1-c1cccc(F)c1 [2b, 4–(3-fluorophenyl)-5–(4-methylimidazol-5-yl)-1,2,4-triazole-3-thione] |  |  |  | 103 (≈ 374 µM) | 24.26 |  | 284
5 | Cc1nc[nH]c1C(=O)NNC(=S)Nc1ccc(F)cc1 [3a] | 266.01 (≈ 907 µM) | 2.41 | 110.31 (≈ 376 µM) |  |  |  | 
6 | Cc1nc[nH]c1-c1n[nH]c(=S)n1-c1ccc(F)cc1 [3b] |  |  |  | 206 (≈ 748 µM) | 0.55 | 113.71 (≈ 413 µM) | 
7 | Cc1nc[nH]c1C(=O)NNC(=S)Nc1ccccc1Cl [4a] | 143.15 (≈ 462 µM) | 4.02 | 35.61 (≈ 115 µM) |  |  |  | 
8 | Cc1nc[nH]c1-c1n[nH]c(=S)n1-c1ccccc1Cl [4b, 4–(2-chlorophenyl)-5–(4-methylimidazol-5-yl)-1,2,4-triazole-3-thione] |  |  |  | 345 (≈ 1180 µM) | 2.03 | 698.23 (≈ 2390 µM) | 243.4
9 | Cc1nc[nH]c1C(=O)NNC(=S)Nc1cccc(Cl)c1 [5a] | 96.78 (≈ 312 µM) |  | 25.70 (≈ 83 µM) |  |  |  | 
10 | Cc1nc[nH]c1-c1n[nH]c(=S)n1-c1cccc(Cl)c1 [5b, 4–(3-chlorophenyl)-5–(4-methylimidazol-5-yl)-1,2,4-triazole-3-thione] |  |  |  | 310 (≈ 1060 µM) | 2.32 | 721.27 (≈ 2470 µM) | 297.8
11 | Cc1nc[nH]c1C(=O)NNC(=S)Nc1ccc(Cl)cc1 [6a] | 94.12 (≈ 304 µM) | 1.28 | 73.37 (≈ 237 µM) |  |  |  | 
12 | Cc1nc[nH]c1-c1n[nH]c(=S)n1-c1ccc(Cl)cc1 [6b, 4–(4-chlorophenyl)-5–(4-methylimidazol-5-yl)-1,2,4-triazole-3-thione] |  |  |  | 267 (≈ 914 µM) | 1.73 | 460.26 (≈ 1580 µM) | 255.8
13 | Cc1nc[nH]c1C(=O)NNC(=S)Nc1ccccc1Br [7a] | 205.31 (≈ 580 µM) | 7.43 | 27.65 (≈ 78.1 µM) |  |  |  | 
14 | Cc1nc[nH]c1-c1n[nH]c(=S)n1-c1ccccc1Br [7b, 4–(2-bromophenyl)-5–(4-methylimidazol-5-yl)-1,2,4-triazole-3-thione] |  |  |  | 66.7 (≈ 199 µM) | 31.72 | 2116.90 (≈ 6300 µM) | 235.6
15 | Cc1nc[nH]c1C(=O)NNC(=S)Nc1cccc(Br)c1 [8a] | 96.12 (≈ 271 µM) | 6.15 | 15.64 (≈ 44.2 µM) |  |  |  | 
16 | Cc1nc[nH]c1-c1n[nH]c(=S)n1-c1cccc(Br)c1 [8b, 4–(3-bromophenyl)-5–(4-methylimidazol-5-yl)-1,2,4-triazole-3-thione] |  |  |  | 103 (≈ 306 µM) | 6.41 | 660.09 (≈ 1960 µM) | 299.7
17 | Cc1nc[nH]c1C(=O)NNC(=S)Nc1ccc(Br)cc1 [9a] | 48.89 (≈ 138 µM) | 3.36 | 14.57 (≈ 41.1 µM) |  |  |  | 
18 | Cc1nc[nH]c1-c1n[nH]c(=S)n1-c1ccc(Br)cc1 [9b, 4–(4-bromophenyl)-5–(4-methylimidazol-5-yl)-1,2,4-triazole-3-thione] |  |  |  | 153 (≈ 455 µM) | 1.48 | 225.58 (≈ 671 µM) | 265.9
19 | Cc1nc[nH]c1C(=O)NNC(=S)Nc1ccccc1I [10a] | 101.58 (≈ 253 µM) | 5.00 | 20.31 (≈ 50.6 µM) |  |  |  | 
20 | Cc1nc[nH]c1-c1n[nH]c(=S)n1-c1ccccc1I [10b, 4–(2-iodophenyl)-5–(4-methylimidazol-5-yl)-1,2,4-triazole-3-thione] |  |  |  | 80.3 (≈ 209 µM) | 12.73 | 1021.41 (≈ 2670 µM) | 297.6
21 | Cc1nc[nH]c1C(=O)NNC(=S)Nc1cccc(I)c1 [11a] | 85.57 (≈ 213 µM) | 8.31 | 10.3 (≈ 25.7 µM) |  |  |  | 
22 | Cc1nc[nH]c1-c1n[nH]c(=S)n1-c1cccc(I)c1 [11b, 4–(3-iodophenyl)-5–(4-methylimidazol-5-yl)-1,2,4-triazole-3-thione] |  |  |  | 36.4 (≈ 95.1 µM) | 17.16 | 625.17 (≈ 1630 µM) | 276.5
